Measurements reported in the supplement of paper PMC10307832.

Tests used:
Assay in all cases: relative viability (nuclei count vs DMSO), 5 days (fraction); higher = more cells survive
[1] = compound: Cc1nc(Nc2ncc(C(=O)Nc3c(C)cccc3Cl)s2)cc(N2CCN(CCO)CC2)n1 [Dasatinib] + C[C@]1(O)C[C@@H](c2nc(-c3ccc4ccc(-c5ccccc5)nc4c3)c3c(N)nccn32)C1 [Linsitinib] (partner 1 µM)
Summary of the method: (§1)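 For relative viability, nuclei counts in treated wells were divided by those in vehicle wells. Lung cancer cell lines had been pin-tool dosed in 1536-well plates the day after seeding and cultured for 5 days, then fixed and stained in one step (final 0.05% Triton X-100, 1% formaldehyde, 1 ug/ml Hoechst) and imaged at 4×. Doses were one drug alone or a fixed anchor-drug dose plus five library-drug doses (not always all listed) in √10 steps, and values are duplicate-plate medians.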

[2] = compound: C1CC1C(=O)NC2=NNC3=C2C=CC(=C3)C4=CC(=CC=C4)C(=O)NC5CC5 [XMD13-2] + O=C(CCCCCCC(=O)Nc1ccccc1)NO [Vorinostat] (partner 1 µM)
Summary of the method: as §1

[3] = compound: Cc1nc(Nc2ncc(C(=O)Nc3c(C)cccc3Cl)s2)cc(N2CCN(CCO)CC2)n1 [Dasatinib] + CC(=O)Nc1cccc(-n2c(=O)n(C3CC3)c(=O)c3c(Nc4ccc(I)cc4F)n(C)c(=O)c(C)c32)c1 [Trametinib] (partner 0.02 µM)
Summary of the method: as §1

[4] = compound: Cc1nc(Nc2ncc(C(=O)Nc3c(C)cccc3Cl)s2)cc(N2CCN(CCO)CC2)n1 [Dasatinib] + Cc1cc(Nc2cc(N3CCN(C)CC3)nc(Sc3ccc(NC(=O)C4CC4)cc3)n2)n[nH]1 [Tozasertib] (partner 0.1 µM)
Summary of the method: as §1

Cell Line | relative viability ([1]; first compound 0.005 µM) | relative viability ([1]; first compound 0.01581 µM) | relative viability ([1]; first compound 0.05 µM) | relative viability ([1]; first compound 0.1581 µM) | relative viability ([1]; first compound 0.5 µM) | relative viability ([2]; first compound 0.05 µM) | relative viability ([2]; first compound 0.1581 µM) | relative viability ([2]; first compound 0.5 µM) | relative viability ([2]; first compound 1.581 µM) | relative viability ([2]; first compound 5 µM) | relative viability ([3]; first compound 0.005 µM) | relative viability ([3]; first compound 0.01581 µM) | relative viability ([3]; first compound 0.05 µM) | relative viability ([3]; first compound 0.1581 µM) | relative viability ([3]; first compound 0.5 µM) | relative viability ([4]; first compound 0.005 µM) | relative viability ([4]; first compound 0.01581 µM) | relative viability ([4]; first compound 0.05 µM) | relative viability ([4]; first compound 0.1581 µM) | relative viability ([4]; first compound 0.5 µM)
EBC-1 | 0.787 | 0.805 | 0.782 | 0.589 | 0.467 | – | – | – | – | – | – | – | – | – | – | – | – | – | – | –
EKVX | 0.945 | 0.683 | 0.778 | 0.314 | 0.142 | 0.785 | 0.625 | 0.758 | 0.661 | 0.702 | 0.345 | 0.306 | 0.254 | 0.178 | 0.114 | 0.372 | 0.279 | 0.303 | 0.214 | 0.119
EMC-BAC-2 | 0.685 | 0.482 | 0.525 | 0.26 | 0.201 | 0.502 | 0.43 | 0.438 | – | 0.36 | 0.965 | 0.93 | 0.923 | 0.857 | 0.716 | 0.271 | 0.205 | 0.226 | 0.179 | 0.164
EPLC-272H | 1.24 | 1.28 | 1.46 | 0.92 | 0.338 | 0.474 | 0.473 | 0.374 | 0.33 | 0.0998 | 0.312 | 0.267 | 0.307 | 0.222 | 0.141 | 0.254 | 0.282 | 0.222 | 0.137 | 0.122
H3255 | 0.929 | 0.918 | 0.957 | 0.658 | 0.287 | 0.839 | 0.716 | 0.746 | – | 0.662 | 0.667 | 0.489 | 0.587 | 0.431 | 0.297 | 0.721 | 0.543 | 0.463 | 0.547 | 0.322
HARA | 0.971 | 0.67 | 0.516 | 0.247 | 0.189 | 0.555 | 0.484 | 0.536 | 0.578 | 0.372 | 0.714 | 0.31 | 0.518 | 0.189 | 0.212 | 0.119 | 0.133 | 0.0917 | 0.0528 | 0.0523
HCC-15 | 0.862 | 0.773 | 0.766 | 0.599 | 0.555 | 0.971 | 0.862 | 0.957 | 0.764 | 0.823 | 0.354 | 0.336 | 0.332 | 0.253 | 0.207 | 0.424 | 0.403 | 0.338 | 0.251 | 0.235
HCC-44 | 0.619 | 0.51 | 0.669 | 0.27 | 0.131 | 1.11 | 1.17 | 1.21 | 1.09 | 1.09 | 1.11 | 0.94 | 1.16 | 1.17 | 0.574 | 1.19 | 0.716 | 0.452 | 0.75 | 0.313
HCC-78 | 0.376 | 0.447 | 0.408 | 0.363 | 0.24 | 0.481 | 0.489 | 0.454 | 0.445 | 0.413 | 0.676 | 0.679 | 0.643 | 0.444 | 0.354 | 0.47 | 0.371 | 0.395 | 0.242 | 0.181
